Reference: paper PMC5918173, “Characterization of Transglutaminase 2 activity inhibitors in monocytes in vitro and their effect in a mouse model for multiple sclerosis” (PLoS ONE, 2018)

Key:
[1] = system: fibronectin assembly; set-up: method as in PMID 26133787, PMID 17099729; details: cited from earlier work
[2] = biological target: T1, TG2-fibronectin (FN42) interaction (Homo sapiens, UniProt P21980); assay: TG2 interaction with fibronectin (FN42) ELISA; assay type: binding; details: 5 and 15 μM, with or without 1 mM CaCl2, Fig 2E, 2F
T1 construct: purchased Zedira
T1 sequence (P21980 1-687): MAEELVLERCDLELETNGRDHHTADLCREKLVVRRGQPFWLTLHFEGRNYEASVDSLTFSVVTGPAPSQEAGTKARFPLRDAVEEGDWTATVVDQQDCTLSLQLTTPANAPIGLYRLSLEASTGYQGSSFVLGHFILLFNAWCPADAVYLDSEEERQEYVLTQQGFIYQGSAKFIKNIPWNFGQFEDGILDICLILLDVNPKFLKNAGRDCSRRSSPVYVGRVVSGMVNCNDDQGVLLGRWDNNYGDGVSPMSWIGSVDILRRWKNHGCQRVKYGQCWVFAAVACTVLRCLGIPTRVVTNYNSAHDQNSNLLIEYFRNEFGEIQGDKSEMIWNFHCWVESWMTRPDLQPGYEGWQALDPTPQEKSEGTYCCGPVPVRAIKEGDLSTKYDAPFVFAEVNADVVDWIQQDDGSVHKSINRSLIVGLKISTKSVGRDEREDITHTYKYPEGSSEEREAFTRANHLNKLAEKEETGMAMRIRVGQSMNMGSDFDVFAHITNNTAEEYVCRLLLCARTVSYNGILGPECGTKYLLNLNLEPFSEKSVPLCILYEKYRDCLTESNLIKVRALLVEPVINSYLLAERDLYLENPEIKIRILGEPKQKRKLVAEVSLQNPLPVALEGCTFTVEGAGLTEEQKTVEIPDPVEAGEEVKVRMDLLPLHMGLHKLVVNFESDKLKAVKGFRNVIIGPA
Method: To determine the potential effect of BJJF078 and ERW1041E on the interaction of TG2 with fibronectin, ELISA experiments were performed as described previously. Briefly, 96 well ELISA plates (Nunc, Maxisorp) were coated with 100 μg/ml mouse anti his-tag monoclonal antibody (Roche) in PBS at 4°C overnight. This was followed by simultaneous washing and blocking with 0.5% BSA in PBS (3x 10 min). Per well 50 μl of a 10 nM human recombinant TG2 (his-tagged, Zedira) solution in PBS was added. Into each well (triplicates) either DMSO (control, 1% final concentration) or TG2 inhibitors (BJJF078, ERW1041E, final concentration 5 and 15 μM in 1% DMSO) were added. As a positive control similar concentrations of TG53, a small molecule that inhibits the interaction between TG2 and fibronectin was added (kindly provided by Prof D. Matei, Northwestern University, Chicago, USA). […] After 1 h incubation at RT, 50 μl of 10 nM FN42-biotin solution (kindly provided by Prof D. Matei) was added to the wells. After an additional 1 h incubation at RT and washing steps (3x 10 min) with 0.5% BSA in PBS, 100 μl streptavidin-HRPO conjugate (from kit opr001, Covalab) was added and incubated for 1 h at RT. This was followed by another series of washes and the colour reaction started with 100 μl of 3,3′,5,5′ tetramethylbenzidine substrate (TMB, from kit opr001, Covalab). After sufficient colour development (15 min), the reaction was stopped with 1M HCl and absorbance was measured at 450 nm.

Structure (SMILES): O=C(N[C@@H](Cc1ccc(O)cc1)C(=O)NCC1CC(Br)=NO1)OCc1ccccc1 (some centres unmarked) [KCC009]
- effect on fibronectin assembly [1]: can interfere with fibronectin assembly

Structure (SMILES): COc1ccc(Cl)cc1C(=O)Nc1ccc(Nc2nc(C)cc(N(C)C)n2)cc1 [TG53]
- effect on binding of TG2 to fibronectin (FN42) [2]: dose-dependent reduction
